Results taken from ChEMBL document CHEMBL3822381, “Design, synthesis, and evaluation of Trolox-conjugated amyloid-β C-terminal peptides for therapeutic intervention in an in vitro model of Alzheimer's disease” (Bioorg Med Chem, 2016).
The source made the active and inactive calls. The calls are words filed in the database; no cut-off is given here. Residues, ends and D or L forms follow the SMILES beside them. *: point of attachment. Trolox = Cc1c(C)c2c(c(C)c1O)CCC(C)(C(=O)*)O2

Assays:
[1] = biological target: Amyloid-beta precursor protein (Homo sapiens) (UniProt P05067); assay: Inhibition of amyloid beta (1 to 42) (unknown origin) aggregation at 80 uM by ThT-fluorescence assay relative to control
Amyloid-beta precursor protein (Homo sapiens), sequence (P05067 whole entry): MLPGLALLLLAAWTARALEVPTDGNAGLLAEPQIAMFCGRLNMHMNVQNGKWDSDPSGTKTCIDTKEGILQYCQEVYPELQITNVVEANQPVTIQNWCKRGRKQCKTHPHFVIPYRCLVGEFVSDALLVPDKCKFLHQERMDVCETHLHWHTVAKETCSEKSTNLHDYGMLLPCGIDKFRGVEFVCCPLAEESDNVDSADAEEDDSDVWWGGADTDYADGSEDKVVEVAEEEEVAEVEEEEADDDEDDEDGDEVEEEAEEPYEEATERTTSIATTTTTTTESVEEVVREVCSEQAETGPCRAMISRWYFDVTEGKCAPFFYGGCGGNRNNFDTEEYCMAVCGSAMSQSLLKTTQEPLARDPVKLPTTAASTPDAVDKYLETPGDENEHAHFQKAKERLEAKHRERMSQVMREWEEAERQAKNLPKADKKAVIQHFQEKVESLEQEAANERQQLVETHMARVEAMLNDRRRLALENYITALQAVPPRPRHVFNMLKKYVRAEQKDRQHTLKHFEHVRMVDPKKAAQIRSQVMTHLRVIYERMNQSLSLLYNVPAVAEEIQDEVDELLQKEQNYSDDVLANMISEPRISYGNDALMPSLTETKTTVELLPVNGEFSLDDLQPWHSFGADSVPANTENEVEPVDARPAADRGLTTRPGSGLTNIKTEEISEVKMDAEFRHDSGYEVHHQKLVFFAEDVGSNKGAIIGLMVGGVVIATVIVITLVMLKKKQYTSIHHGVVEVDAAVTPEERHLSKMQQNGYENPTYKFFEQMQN

[2] = tested on: SH-SY5Y; assay: Neuroprotective activity against amyloid beta (1 to 42)-induced neurotoxicity in human SH-SY5Y cells assessed as increase in cell viability at 5 to 40 uM measured after 48 hrs by WST-8 assay; format: functional, cell-based
[3] = tested on: SH-SY5Y; assay: Antioxidant activity against human SH-SY5Y cells assessed as amyloid beta (1 to 42)-induced ROS production preincubated for 1 day prior H2O2 treatment at 1.25 uM by DCFH-DA-based fluorescence analysis relative to control; format: functional
[4] = tested on: SH-SY5Y; assay: Antioxidant activity in human SH-SY5Y cells assessed as inhibition of H2O2-induced ROS production preincubated for 1 day prior H2O2 treatment at 25 uM by DCFH-DA-based fluorescence analysis; format: functional, cell-based
[5] = tested on: SH-SY5Y; assay: Cytotoxicity against human SH-SY5Y cells assessed as cell viability up to 40 uM measured after 48 hrs by WST-8 assay; format: cell-based
[6] = tested on: SH-SY5Y; assay: Neuroprotective activity against amyloid beta (1 to 42)-induced neurotoxicity in human SH-SY5Y cells assessed as increase in cell viability at 40 uM measured after 48 hrs by WST-8 assay; format: functional, cell-based
[7] = tested on: SH-SY5Y; assay: Neuroprotective activity against amyloid beta (1 to 42)-induced neurotoxicity in human SH-SY5Y cells assessed as increase in cell viability measured after 48 hrs by WST-8 assay; format: functional, cell-based
[8] = tested on: SH-SY5Y; assay: Neuroprotective activity against amyloid beta (1 to 42)-induced neurotoxicity in human SH-SY5Y cells assessed as increase in cell viability at 20 uM measured after 48 hrs by WST-8 assay; format: functional, cell-based

SMILES	inhibition [1]	also measured
CC[C@H](C)[C@H](NC(=O)[C@@H](NC(=O)C1(C)CCc2c(C)c(O)c(C)c(C)c2O1)C(C)C)C(=O)N[C@@H](C)C(=O)O (stereo partly drawn)	2.8%	
CC[C@H](C)[C@H](NC(=O)[C@@H](NC(=O)[C@@H](NC(=O)CNC(=O)CNC(=O)[C@@H](NC(=O)[C@H](CCSC)NC(=O)[C@H](CC(C)C)NC(=O)C1(C)CCc2c(C)c(O)c(C)c(C)c2O1)C(C)C)C(C)C)C(C)C)C(=O)N[C@@H](C)C(=O)O (stereo partly drawn)	39.5%	
Cc1c(C)c2c(c(C)c1O)CCC(C)(C(=O)NCC(=O)N[C@H](C(=O)N[C@H](C(=O)O)C(C)C)C(C)C)O2 (stereo partly drawn)	inactive	
Cc1c(C)c2c(c(C)c1O)CCC(C)(C(=O)N[C@H](C(=O)O)C(C)C)O2 (stereo partly drawn)	inactive	
CC[C@H](C)[C@H](NC(=O)[C@@H](NC(=O)[C@@H](NC(=O)CNC(=O)C1(C)CCc2c(C)c(O)c(C)c(C)c2O1)C(C)C)C(C)C)C(=O)N[C@@H](C)C(=O)O (stereo partly drawn) (Trolox-GVVIA-OH)	4.7%	
CC[C@H](C)[C@H](NC(=O)[C@@H](NC(=O)[C@@H](NC(=O)CNC(=O)C1(C)CCc2c(C)c(O)c(C)c(C)c2O1)C(C)C)C(C)C)C(=O)N[C@@H](C)C(=O)N[C@H](C(=O)O)[C@@H](C)O (stereo partly drawn) (Trolox-GVVIAT-OH)	5%	
CSCC[C@H](NC(=O)[C@H](CC(C)C)NC(=O)C1(C)CCc2c(C)c(O)c(C)c(C)c2O1)C(=O)N[C@H](C(=O)NCC(=O)NCC(=O)N[C@H](C(=O)N[C@H](C(=O)O)C(C)C)C(C)C)C(C)C (stereo partly drawn) (Trolox-LMVGGVV-OH)	inactive	
CC[C@H](C)[C@H](NC(=O)[C@@H](NC(=O)[C@@H](NC(=O)CNC(=O)CNC(=O)[C@@H](NC(=O)[C@H](CCSC)NC(=O)[C@H](CC(C)C)NC(=O)C1(C)CCc2c(C)c(O)c(C)c(C)c2O1)C(C)C)C(C)C)C(C)C)C(=O)N[C@@H](C)C(=O)N[C@H](C(=O)O)[C@@H](C)O (stereo partly drawn) (Trolox-LMVGGVVIAT-OH)	40.4%	
Cc1c(C)c2c(c(C)c1O)CCC(C)(C(=O)N[C@H](C(=O)NCC(=O)NCC(=O)N[C@H](C(=O)N[C@H](C(=O)O)C(C)C)C(C)C)C(C)C)O2 (stereo partly drawn) (Trolox-VGGVV-OH)	inactive	Activity [2]: inactive
CC[C@H](C)[C@H](NC(=O)[C@@H](NC(=O)[C@@H](NC(=O)CNC(=O)CNC(=O)[C@@H](NC(=O)C1(C)CCc2c(C)c(O)c(C)c(C)c2O1)C(C)C)C(C)C)C(C)C)C(=O)N[C@@H](C)C(=O)O (stereo partly drawn) (Trolox-VGGVVIA-OH)	17.7%	Activity [3]: 37.6%; inhibition [4]: Active; Activity [5]: Non-toxic; Activity [6]: Active; Activity [7]: Dose-dependent effect
CC[C@H](C)[C@H](NC(=O)[C@@H](NC(=O)[C@@H](NC(=O)CNC(=O)CNC(=O)[C@@H](NC(=O)C1(C)CCc2c(C)c(O)c(C)c(C)c2O1)C(C)C)C(C)C)C(C)C)C(=O)N[C@@H](C)C(=O)N[C@H](C(=O)O)[C@@H](C)O (stereo partly drawn) (Trolox-VGGVVIAT-OH)	17.3%	Activity [8]: Active; Activity [5]: Non-toxic; Activity [6]: inactive
CC[C@H](C)[C@H](NC(=O)[C@@H](NC(=O)C1(C)CCc2c(C)c(O)c(C)c(C)c2O1)C(C)C)C(=O)N[C@@H](C)C(=O)N[C@H](C(=O)O)[C@@H](C)O (stereo partly drawn) (Trolox-VIAT-OH)	6.6%	
Cc1c(C)c2c(c(C)c1O)CCC(C)(C(=O)O)O2 (stereo not drawn) [TROLOX]		Activity [3]: 23.6%; inhibition [4]: Active
